This note sets out measurements from patent US12528772B2, “Formulations of T-type calcium channel modulators and methods of use thereof” (Praxis Precision Medicines, Inc., priority 2019, dated 2026).

The assay relates to T-type calcium channels in the thalamocortical circuit. The assay can be described thus: Phase 1 sleep EEG in healthy volunteers (NREM sigma). As to conditions: FIG. 12. Format: in vivo, human. As for the experimental part: This was a 2-part, Phase 1 double blind, placebo controlled trial to assess the safety, tolerability, PK, and PD (including the KSS, the KDT, the SQSQ and 24-hour EEG recordings), of single, ascending (Part A: 20, 40, and 60 mg)) and multiple, ascending (Part B: 20 and 40 mg for 8 days) doses of the 20 mg tablet (formulation 3) in healthy participants. […] Variability in Cmax and AUC increased with increasing dose following a single oral dose of the 20 mg tablet formulation (formulation 3).
The T-type calcium channels expressed in the thalamus are critically involved in the generation and modulation of sleep spindles which are prominent thalamocortical oscillations during NREM sleep. Sleep spindles are detected in the EEG as the sigma frequency band (11-15 Hz) (FIG. 12).

Take `CC(C)(C)NC(=O)CN1CCC(CNC(=O)c2cc(F)cc(Cl)c2)CC1` [the compound of formula (I)]: the “power in the sigma frequency band (11-15 Hz), NREM sleep EEG” value is “decrease of power in the sigma frequency band”.
